Source: patent publication US20090215921A1, “MODIFIED DIMETHYLACRYLATE MONOMER, METHOD FOR PREPARING THE SAME, AND POLYMERIC DENTAL COMPOSITE” (priority 2008, published 2009)

Tests used:
[1] = Water absorption for a modified Bis-GMA monomer, Karl Fischer titration; type: physicochemical
Procedure: 2. Water absorption for a modified Bis-GMA monomer is measured according to Karl Fischer titration.
(§1) The modified Bis-GMA obtained in Example 2 and Bis-GMA were subjected to viscosity and water absorption tests.

[2] = Viscosity measured using a Brookfield viscosmeter; type: physicochemical; details: monomer
Procedure: 1. Viscosity is measured using a Brookfield viscosmeter.
as §1

C=C(C)C(=O)OCC(O)COc1ccc(C(C)(C)c2ccc(OCC(O)COC(=O)C(=C)C)cc2)cc1 (stereo not shown) [Bis-GMA, 2,2-bis[4-(2-hydroxyl-3-methacryloyloxy)phenyl] propane]
Water absorption [1]: 35 mg/mm^3/week
Viscosity [2]: 458400 cp

C=C(C)C(=O)OCC(COc1ccc(C(C)(C)c2ccc(OCC(COC(=O)C(=C)C)O[Si](CC)(CC)CC)cc2)cc1)O[Si](CC)(CC)CC (stereo not shown) [Example 2]
Water absorption [1]: 7.4 mg/mm^3/week
Viscosity [2]: 440 cp
